Measurements as given in patent US9441017B2, “Water-soluble polypeptides comprised of repeat modules, method for preparing the same and method for a target-specific polypeptide and analysis of biological activity thereof” (priority 2011, dated 2016).
“Also recorded” adds a separate entry of the source.

Tests used:
[1] = tested on: LPS signal transduction in differentiated THP-1 cells; assay: TNF-α secretion of LPS-treated, PMA-differentiated THP-1 cells by ELISA; type: cell-based, human; details: differentiated THP-1, 20 ng/ml LPS, 6 hours
Description: First, THP-1 monocyte (TIB-202TM, ATCC) was cultured in RPMI containing 10% FBS (Fetal Bovine Serum) and 50 µM 2-mercaptoethanol at 37° C. and 5% CO2. When cell density reached 90%, they were washed with a DPBS buffer solution (pH 7.4). Then, to increase the sensitivity to LPS, the cells were suspended in a medium supplemented with 200 nM PMA (phorbol 12-myristate-13-acetate), and aliquoted to a 96-well plate in a density of 2.5×10^4/well, followed by incubation for 72 hours at 37° C. and 5% CO2 for differentiation.
Prior to the experiment, 10 μg/ml of InlB-VLR and MD-2-added RPMI medium, and 10 μg/ml of MD-2 and 10 μg/ml of IVLR-added medium, 10 μg/ml of TV3-added medium, and 10 μg/ml of TV-3 and MD-2-added medium as control groups were prepared and left at 37° C. for 1 hour. Then, THP-1 differentiated into macrophage by PMA was washed with DPBS buffer solution (pH 7.4) three times, and the sample-containing RPMI media were treated with 20 ng/ml of LPS and THP-1, followed by incubation at 37° C. and 5% CO2 for 6 hours. After 6 hours, a predetermined amount of culture was taken from each well, and diluted 4-8 fold using DPBS buffer solution (pH 7.4), followed by ELISA (Enzyme-Linked Immunosorbent Assays) for the secreted TNF-α.
Monocyte THP-1 (TIB-202TM, ATCC) was cultured in RPMI media supplemented with 10% Fetal Bovine Serum (FBS) and 50 µM of 2-mercaptoethanol at 37° C. and 5% CO2. When the cells reached 90% confluence, they were washed with PBS buffer solution (pH 7.4). In order to increase LPS sensitivity, the cells were suspended in RPMI media containing 200 nM of PMA (phorbol 12-myristate-13-acetate), and plated in a 96-well plate at a density of 2.5×10^4 cells/well, and differentiated at 37° C. and 5% CO2 for 72 hours.
Prior to the experiment, the LPS inhibitor polymyxin B was diluted in RPMI at a concentration of 1-100 μg/ml, and incubated at 37° C. for 1 hour. […] The results were calculated from a standard curve of TNF-α.

[2] = reported, Akashi et al. 2003; read-out: binding affinity (Kd) for LPS; cited from earlier work
[3] = tested on: TLR4/MD-2 receptor activation by LPS; assay: NF-κB firefly/Renilla luciferase reporter assay in HEK293/hTLR4A-MD2-CD14 cells; type: cell-based, human; details: HEK293/hTLR4A-MD2-CD14, 10 ng/ml LPS, 6 hours
Description: In order to monitor activation of TLR4-MD-2 receptor by LPS, an HEK293/hTLR4A-MD2-CD14 cell line (Invivogen) stably expressing TLR4 and MD2, CD14 genes, prepared by introduction of the genes into HEK293 cell, was used. The HEK293/hTLR4A-MD2-CD14 cell line was subcultured in an RPMI medium (Invitrogen) supplemented with 10% Fetal Bovine Serum (FBS) in an incubator at 37° C. and 5% CO2, and then used for the experiment.
In the present invention, the LPS inhibitor, polymyxin B (Invivogen) and the LPS antagonist, LPS-RS (Invivogen) were diluted in RPMI media at a concentration of 0.01-100 μg/ml, and reacted with 10 ng/ml of LPS at 37° C. for 1 hour. […]
First, the media were removed from the 24-well plate, and the plate was washed with a PBS buffer solution twice, and then 200 μl of passive lysis buffer (PLB) was added to each well for cell lysis. After 30 minutes, 20 μl of cell lysate was transferred to a new 96 well-plate, and then 100 μl of LAR II reagent containing a substrate of firefly luciferase was added to measure luminescence using a VICTOR X Multilabel Plate Reader (PerkinElmer) for 0.5 seconds. After measurement of firefly luciferase luminescence, 100 μl of STOP & GLO reagent containing a substrate of Renilla luciferase was added to measure Renilla luciferase luminescence for 0.5 second. […]

For “MD-2: Myeloid differentiation protein-2, also called lymphocyte antigen 96, a glycoprotein that binds LPS”, the “inhibitory effect on LPS signal transduction (TNF-α secretion)” value (“inhibitory effect … (TNF-α secretion)” for short) [1] is given as “weak inhibitory effect” and the Kd [2] is given as 65 nM.
For “TLR4/MD-2 complex: complex of Toll-like receptor 4 with MD-2”, the Kd [2] is given as 3 nM.
With polymyxin B the “inhibitory effect … (TNF-α secretion)” value [1] was “reduction in TNF-α secretion; also recorded: reduction in LPS signal transduction” and the “inhibitory effect on LPS signal transduction (relative firefly luciferase activity)” value [3] was “relatively reduced luciferase activity; also recorded: relative reduction of firefly luciferase activity”.
With “sTLR4: soluble extracellular domain of cell membrane receptor TLR4” the “inhibitory effect … (TNF-α secretion)” value [1] was “no LPS blocking activity” and the “inhibitory effect on LPS signal transduction (relative firefly luciferase activity)” value [3] was “no LPS blocking activity”.
